Consider three compounds from US10913780B2, “Conjugates, their compositions, their uses, and their methods of making” (THE ADMINISTRATORS OF THE TULANE EDUCATIONAL FUND, priority 2016, dated 2021).

The subject of this experiment is activated human T-cells (Jurkat). Nature of the experiment: Inhibition of IL-2 release from a culture of activated human T-cells (Jurkat). The format is cell-based. Particulars: for inhibition of IL-2 release: Jurkat cells stimulated with lectin and Phorbol, overnight, potency compared with tacrolimus (FK-506); for effect on IL-2 release in the presence of increasing amounts of lanreotide: large excess of the somatostatin type 2 agonist lanreotide. How it is done:
Cells were harvested, washed twice, and re-suspended in serum-free medium at a cell density of 4×10^6 cells/ml. Fifty μl of cell suspension was then added to each well of 96-well plates followed by 50 μl of tested compounds at different concentration (4×) for 1 hour at 37° C. The cells were stimulated to release IL-2 by adding 50 μl of lectin in PBS (10 μg/ml) and 50 μl of Phorbol in DMSO (100 ng/ml) to each well and continuing overnight incubation. The plates were centrifuged for 10 min at 1500 rpm and supernatants harvested for IL-2 assay using kits purchased from R&D Systems (Minneapolis, Minn.) and following the experimental directions provided.

Bridge positions count the residues as written; N and C are the ends. Square brackets hold non-standard residues; d marks the D form. * marks the point of attachment. 4‑mercaptophenylacetyl = O=C(Cc1ccc(S)cc1)*; Nle = CCCC[C@H](N)C(=O)O

With `C=CC[C@@H]1/C=C(\C)C[C@H](C)C[C@H](OC)[C@H]2O[C@@](O)(C(=O)C(=O)N3CCCC[C@H]3C(=O)O[C@H](/C(C)=C/[C@@H]3CC[C@@H](O)[C@H](OC)C3)[C@H](C)[C@@H](O)CC1=O)[C@H](C)C[C@@H]2OC` [Tacrolimus, reference compound], the “inhibition of IL-2 release” value was “potent inhibitor”.

For the compound `C=CC[C@@H]1/C=C(\C)C[C@H](C)C[C@H](OC)[C@H]2O[C@@](O)(C(=O)C(=O)N3CCCC[C@H]3C(=O)O[C@H](/C(C)=C/[C@@H]3CCC(S)[C@H](OC)C3)[C@H](C)[C@@H](O)CC1=O)[C@H](C)C[C@@H]2OC` (stereo partly drawn) [tacrolimus-32-thiol, Tacrolimus-32-Thiol], the “inhibition of IL-2 release” value (listed as 32-thiol analog of tacrolimus) is given as “virtually equipotent with the parent compound” and the “inhibition of IL-2 release” value (listed as tacrolimus-32-SH) is given as “equivalent potencies”.

On to “Example 10: Tacrolimus-32-thiol linked by a disulfide bond (4-mercaptophenylacetic acid) to the cyclized somatostatin analog peptide of Example 9 ({tacrolimus‑32‑thiol (disulfide)-4‑mercaptophenylacetyl}-[dS]S[dS]S[dS][Nle][dY][dS]CF[dW]KTCT-NH2; disulfide 9-14)”, for which the “inhibition of IL-2 release” value is recorded as “virtually equipotent” and the “effect on IL-2 release in the presence of increasing amounts of lanreotide” value is listed as “blocked the IL-2 release inhibiting capability”. Further, the “effect on IL-2 release in the presence of increasing amounts of lanreotide” value (listed as tacrolimus-32-SH-somatostatin) was “Blockade of biological activity”.
